Test results as given in article PMC12649408 (Antibiotics, 2025).
Where two headings read alike, the source gives them in different places. Bridge positions count the residues as written; N and C are the ends. Ends that are not written are not given here.

Columns and labels:
[1] = not given; remark: listed apart in the source
[2] = not given; remark: listed apart in the source
[3] = not given; remark: listed apart in the source
[4] = not given; remark: listed apart in the source
[5] = not given; remark: listed apart in the source
[6] = not given; remark: listed apart in the source
[7] = not given; remark: listed apart in the source
C. albicans ATCC 10231 = settings: Table 2; strain resistant to azoles and anidulafungin; Sabouraud broth, 30 °C, 24 h, 100% inhibition
Protocol: (§1) Using the two-fold serial dilution method, antifungal activities of the obtained analogues were tested against different C. albicans strains: susceptible collection strain ATCC 18804; resistant to azoles and anidulafungin collection strain ATCC 10231 and clinical isolates 9.1 and 8.2 [7].
(§2) The antifungal assay was performed by the microdilution method using 96-well microplates and Sabouraud broth as described earlier. […] After that, the plates were incubated at 30 °C for 24 h. A control without antifungals was also tested. Fungal growth was evaluated by measuring absorbance at 630 nm. […] All the experiments were performed twice in triplicate. Microscopic analysis of fungal growth was performed using inverted microscopy (Olympus, Tokyo, Japan). A 0.1% BSA solution was used for the blocking of each microplates well to prevent the adsorption of antifungal agents.

C. albicans ATCC 18804 [8] = settings: Sabouraud broth
Protocol: as §1, §2

[9] = test system: C. albicans clinical isolate 8.2; settings: Table 2; resistant clinical isolate 8.2; Sabouraud broth, 30 °C, 24 h, 100% inhibition
Protocol: as §1, §2

[10] = test system: C. albicans clinical isolate 9.1; settings: Table 2; resistant clinical isolate 9.1; Sabouraud broth, 30 °C, 24 h, 100% inhibition
Protocol: as §1, §2

C. albicans ATCC 18804 [11] = test: Checkerboard antifungal assay; format: cell-based; settings: Sabouraud broth, 24 h, 30 °C, synergism at FICI ≤ 0.5, additive action at 0.5 < FIC ≤ 1
Protocol: All three selected analogues acted synergistically with caspofungin, and the FICI value for NaD1-2 was lower than that of the tobacco defensin.
Two-fold serial dilutions of each test agent were prepared in 96-well microplates in water or 1% DMSO in the case of caspofungin and mixed with equal volumes of suspensions of C. albicans cells (4 × 10^4 cells/mL) in Sabouraud broth, followed by 24 h incubation at 30 °C. Controls containing DMSO at a final concentration of 0.5% (cells only and single agent dilutions) were included in all caspofungin combination assays. […] To assess the combined effect of antifungal substances, the fractional inhibitory concentration index (FICI) was calculated as FICI = ([A])/([MICA]) + ([B])/([MICB]), where [MICA] and [MICB] are the MICs of the substances A and B, respectively, and [A] and [B] are the concentrations of the substances A and B in iso-effective combinations, respectively.

[12] = test system: human red blood cells (hRBCs); settings: 100 µM
Protocol: All procedures were approved by the Ethics Committee of the Institute of Experimental Medicine (protocol 1/20 of 2/27/2020) and comply with the ethical principles of the Declaration of Helsinki. […] Samples were centrifuged to sediment intact red blood cells. Supernatants containing released hemoglobin were transferred to 96-well microplates, and absorbance was measured at 405 nm. Untreated hRBCs in PBS (A0) and hRBC treated with 0.1% Triton X-100 (Sigma-Aldrich) (Acontrol) were used as negative and positive controls, respectively. The percentage of hemolysis was calculated as [(Asample − A0)/(Acontrol − A0)] × 100%. The experiment was carried out twice in duplicate.

Caco-2 cell monolayer = test: Cytotoxicity assay, resazurin method; format: cell-based, human
Protocol: (§3) Cytotoxic activity of the peptides was investigated against human peripheral blood mononuclear cells (PBMCs) and the Caco-2 epithelial monolayer as an in vitro model of the intestinal barrier using a RPMI-1640 medium and resazurin-test.
(§4) In brief, Caco-2 cells in a monolayer or 2 × 10^6 PBMCs per well were incubated with serial dilutions of the peptides for 24 h in RPMI-1640. Resazurin (Sigma, St. Louis, MO, USA) was then added at a final concentration of 70 µM and the plates were incubated for 20 h. Untreated cells (F0) and cells treated by 0.1% Triton X-100 (Sigma-Aldrich) (Fcontrol) were used as negative and positive controls, respectively. Cell viability was assessed by resorufin fluorescence using a 535/595 nm filter and a PlateReader AF2200 as ((Fsample − F0)/(Fcontrol − F0)) × 100%. […] The experiment was carried out twice in duplicate.

PBMCs = test: Cytotoxicity assay, resazurin method; format: cell-based, human
Protocol: as §3, §4

[13] = not given; remark: listed apart in the source
[14] = not given; remark: listed apart in the source
[15] = not given; remark: listed apart in the source
[16] = not given; remark: listed apart in the source
trypsin = molecular target: T1, trypsin (Bos taurus, UniProt P00760); settings: 24 h, 37 °C, 50 mM ammonium bicarbonate buffer pH 8.0, 2.5 ng trypsin per 1 μg peptide, SDS-PAGE
T1 construct: gene PRSS1
T1 sequence (P00760 24-246): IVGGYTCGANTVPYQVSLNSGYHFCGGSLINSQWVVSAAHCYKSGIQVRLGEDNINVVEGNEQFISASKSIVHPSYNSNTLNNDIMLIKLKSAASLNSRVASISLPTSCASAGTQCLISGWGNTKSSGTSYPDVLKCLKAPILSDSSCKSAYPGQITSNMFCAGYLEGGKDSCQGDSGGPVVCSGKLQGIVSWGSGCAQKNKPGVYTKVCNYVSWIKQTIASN
Protocol: (§5) For that purpose, peptides were incubated for 24 h at 50 mM ammonium bicarbonate buffer, pH 8.0, with or without protease.
(§6) The results of proteolysis were monitored by SDS-PAGE (17% T, 3%C). α-Casein, known for its susceptibility to proteolytic digestion, was used in these experiments for comparison.

α-chymotrypsin = settings: 24 h, 37 °C, 50 mM ammonium bicarbonate buffer pH 8.0, 10 ng α-chymotrypsin per 1 μg peptide, SDS-PAGE
Protocol: as §5, §6

[17] = Caco-2 monolayer, RPMI-1640, resazurin-test

Substance: RECKTESNTFPGICITKPPCRKACISEKFTDGHCSKILRRCLCTKPC (disulfide 3-47, 14-34, 20-41, 24-43) [NaD1]
- Random, DPC micelles: 34.2%
- Random, SDS micelles [1]: 31%
- β-Turn, DPC micelles [2]: 21.1%
- β-Turn, SDS micelles [3]: 22.2%
- α-Helix, DPC micelles [4]: 9.3%
- α-Helix, SDS micelles [5]: 15.8%
- β-Sheet, DPC micelles [6]: 35.4%
- β-Sheet, SDS micelles [7]: 31%
- MIC (C. albicans ATCC 10231): 6.25 µM
- IC50 (C. albicans ATCC 18804 [8]; 50 mM NaCl, 50% inhibition): 12.5 to 25 µM
- MIC (C. albicans ATCC 18804 [8]; 50 mM NaCl, 100% inhibition): 50 µM
- IC50 (C. albicans ATCC 18804 [8]; 150 mM NaCl, 50% inhibition): > 50 µM
- MIC (C. albicans ATCC 18804 [8]; Table 2, 30 °C, 24 h, 100% inhibition of fungal growth, absorbance 630 nm, two-fold dilutions, twice in triplicate): 6.25 µM
- IC50 (C. albicans ATCC 18804 [8]; Table 3, No Salts, 50% inhibition of fungal growth): 1.56 to 3.13 µM
- MIC (C. albicans ATCC 18804 [8]; Table 3, No Salts, 100% inhibition of fungal growth): 6.25 µM
- IC50 (C. albicans ATCC 18804 [8]; […] CaCl2, 50% inhibition): > 50 µM
- MIC (C. albicans ATCC 18804 [8]; […] CaCl2, 100% inhibition): >50 µM
- IC50 (C. albicans ATCC 18804 [8]; […] MgCl2, 50% inhibition): 3.13 to 6.25 µM
- MIC (C. albicans ATCC 18804 [8]; […] MgCl2, 100% inhibition): 12.5 µM
- MIC [9]: 6.25 µM
- MIC [10]: 6.25 µM
- FICI LL-37 (C. albicans ATCC 18804 [11]; combination of the peptide with LL-37): 0.38
- FICI Casp (C. albicans ATCC 18804 [11]; combination of the peptide with caspofungin): 0.31
- Hemolysis at 100 µM [12]: 14%
- concentration at which cell viability was 0% (100% cell death) (Caco-2 cell monolayer; [17]): 37.5 µM
- concentration at which cell viability was 50% (Caco-2 cell monolayer; [17]): 10.5 µM
- СС50 Caco-2 (Caco-2 cell monolayer; Table S2, monolayer, 24 h in RPMI-1640, resazurin, twice in duplicate): 10.5 µM
- cell viability (PBMCs; PBMCs, peptide 100 μM, RPMI-1640, resazurin-test): approximately 72%
- СС50 PBMCs (PBMCs; Table S2, 24 h in RPMI-1640, resazurin, twice in duplicate): > 100 µM
- Random, aqueous solution [13]: 35.8%
- β-Turn, aqueous solution [14]: 21.3%
- α-Helix, aqueous solution [15]: 7.5%
- β-Sheet, aqueous solution [16]: 35.4%
- stability to trypsin digestion (trypsin): high stability
- stability to chymotrypsin digestion (α-chymotrypsin): high stability

Substance: H-RECKTESNTFPGICITKPPCRKACISEKFTDGHCSKIRRRCLCTKPC-OH (disulfide 3-47, 14-34, 20-41, 24-43)
- Random, DPC micelles: 32.9%
- Random, SDS micelles [1]: 31.2%
- β-Turn, DPC micelles [2]: 20.5%
- β-Turn, SDS micelles [3]: 21.8%
- α-Helix, DPC micelles [4]: 15.5%
- α-Helix, SDS micelles [5]: 14.2%
- β-Sheet, DPC micelles [6]: 31.1%
- β-Sheet, SDS micelles [7]: 32.8%
- Random, aqueous solution [13]: 36.2%
- β-Turn, aqueous solution [14]: 21.2%
- α-Helix, aqueous solution [15]: 8.3%
- β-Sheet, aqueous solution [16]: 34.3%

Substance: H-RECKTESNTFPGICITKPPCRKACISEKFTDGHCSRIRRRCLCTKPC-OH (disulfide 3-47, 14-34, 20-41, 24-43)
- Random, DPC micelles: 34.6%
- Random, SDS micelles [1]: 31.9%
- β-Turn, DPC micelles [2]: 22%
- β-Turn, SDS micelles [3]: 21.3%
- α-Helix, DPC micelles [4]: 7.6%
- α-Helix, SDS micelles [5]: 6.5%
- β-Sheet, DPC micelles [6]: 35.8%
- β-Sheet, SDS micelles [7]: 40.4%
- Random, aqueous solution [13]: 35.6%
- β-Turn, aqueous solution [14]: 22%
- α-Helix, aqueous solution [15]: 5.6%
- β-Sheet, aqueous solution [16]: 36.8%
